Source: PubChem BioAssay AID330 (DTP/NCI, 2004)
Where “and” joins values, the source holds several entries; their conditions need not be identical. Equal values may be shown once. Inconclusive results and toxic doses are left out.

Tested on: P388 leukemia ip, CD2F1 mice, survival T/C
Assay: NCI In Vivo Anticancer Drug Screen. Data for tumor model P388 Leukemia (intraperitoneal) in CD2F1 (CDF1) mice
Conditions: endpoint: median survival time, higher = longer survival
Summary of the method: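 Mice carrying the transplanted tumor received test compound or vehicle. Survival was recorded in each group, and the value is the treated-group measurement divided by that of the vehicle-treated control group.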

[1] = dose: 60.0 mg/kg/injection, schedule: Q01DX005 (ip), vehicle: saline with Tween-80
[2] = dose: 120.0 mg/kg/injection, schedule: Q01DX005 (ip), vehicle: saline with Tween-80
[3] = dose: 25.0 mg/kg/injection, schedule: Q01DX005 (ip), vehicle: saline with Tween-80
[4] = dose: 50.0 mg/kg/injection, schedule: Q01DX005 (ip), vehicle: saline with Tween-80
[5] = dose: 1.56 mg/kg/injection, schedule: Q01DX009 (ip), vehicle: saline with Tween-80
[6] = dose: 6.25 mg/kg/injection, schedule: Q01DX009 (ip), vehicle: saline with Tween-80
[7] = dose: 100.0 mg/kg/injection, schedule: Q01DX005 (ip), vehicle: saline with Tween-80
[8] = dose: 200.0 mg/kg/injection, schedule: Q01DX005 (ip), vehicle: saline with Tween-80
[9] = dose: 25.0 mg/kg/injection, schedule: Q01DX005 (ip), vehicle: Klucel (hydroxypropylcellulose) (HPC)
[10] = dose: 50.0 mg/kg/injection, schedule: Q01DX005 (ip), vehicle: Klucel (hydroxypropylcellulose) (HPC)
[11] = dose: 100.0 mg/kg/injection, schedule: Q01DX005 (ip), vehicle: Klucel (hydroxypropylcellulose) (HPC)
[12] = dose: 50.0 mg/kg/injection, schedule: Q01DX009 (ip), vehicle: Klucel (hydroxypropylcellulose) (HPC)
[13] = dose: 200.0 mg/kg/injection, schedule: Q01DX005 (ip), vehicle: Klucel (hydroxypropylcellulose) (HPC)
[14] = dose: 50.0 mg/kg/injection, schedule: Q01DX009 (ip), vehicle: saline
[15] = dose: 100.0 mg/kg/injection, schedule: Q01DX009 (ip), vehicle: saline
[16] = dose: 100.0 mg/kg/injection, schedule: Q01DX009 (ip), vehicle: saline with Tween-80
[17] = dose: 200.0 mg/kg/injection, schedule: Q01DX009 (ip), vehicle: saline with Tween-80

Structure (SMILES): NNC(=O)CNc1cc(Cl)cc(Cl)c1
- T/C [1]: 113 % of control
- T/C [2]: 97 % of control
- T/C (dose: 240.0 mg/kg/injection, schedule: Q01DX005 (ip), vehicle: saline with Tween-80): 100 % of control

Structure (SMILES): [Zn].c1c[nH]cn1.c1c[nH]cn1.c1c[nH]cn1.c1c[nH]cn1
- T/C [3]: 107 % of control and 109 % of control
- T/C [4]: 106 % of control and 110 % of control and 115 % of control

Structure (SMILES): CN(C)c1ccc(/C=C/c2ccncc2)cc1
- T/C [5]: 104 % of control and 106 % of control
- T/C (dose: 3.13 mg/kg/injection, schedule: Q01DX009 (ip), vehicle: saline with Tween-80): 104 % of control and 113 % of control
- T/C [6]: 102 % of control and 94 % of control

Structure (SMILES): COc1ccc(S(=O)(=O)N/N=C/CN(C)C)cc1
- T/C [3]: 101 % of control
- T/C [4]: 101 % of control
- T/C [7]: 101 % of control
- T/C [8]: 99 % of control

Structure (SMILES): O=C1c2ccccc2C(=O)c2c(O)c(CBr)c(CBr)c(O)c21
- T/C [4]: 96 % of control
- T/C [7]: 104 % of control
- T/C [8]: 95 % of control

Structure (SMILES): Cc1cccc(C(O)(c2cccc(C)c2)C2(O)CCN(C)CC2)c1
- T/C [9]: 98 % of control
- T/C [10]: 98 % of control
- T/C [11]: 102 % of control

Structure (SMILES): C=CC(C)(C)c1[nH]c2ccccc2c1CC1NC(=O)C(C)NC1=O (stereo not drawn)
- T/C (dose: 12.5 mg/kg/injection, schedule: Q01DX009 (ip), vehicle: Klucel (hydroxypropylcellulose) (HPC)): 86 % of control
- T/C [12]: 92 % of control

Structure (SMILES): CCC1(C)c2[nH]c3ccccc3c2C(=O)NN1C(C)=O (stereo not drawn)
- T/C [10]: 104 % of control
- T/C [11]: 107 % of control
- T/C [13]: 112 % of control

Structure (SMILES): O=c1/c(=C/C=C/c2ccccc2)sc2nc3ccccc3n12
- T/C [4]: 107 % of control
- T/C [7]: 106 % of control
- T/C [8]: 92 % of control

Structure (SMILES): O=C(O)C(O)C(O)C1[O][Sb][O]C1C(=O)O (stereo not drawn)
- T/C (dose: 12.5 mg/kg/injection, schedule: Q01DX005 (ip), vehicle: saline): 110 % of control
- T/C [4]: 100 % of control and 101 % of control and 94 % of control
- T/C [7]: 100 % of control and 108 % of control and 109 % of control
- T/C [8]: 111 % of control and 117 % of control
- T/C (dose: 400.0 mg/kg/injection, schedule: Q01DX005 (ip), vehicle: saline with Tween-80): 118 % of control and 120 % of control

Structure (SMILES): CCN(CC)CCNC(=O)C(O)C1CCCCC1 (stereo not drawn)
- T/C [1]: 99 % of control
- T/C [2]: 99 % of control

Structure (SMILES): O=C(NO)C1NC1C(=O)NO (stereo not drawn)
- T/C (dose: 25.0 mg/kg/injection, schedule: Q01DX009 (ip), vehicle: water): 96 % of control
- T/C (dose: 50.0 mg/kg/injection, schedule: Q01DX009 (ip), vehicle: water): 109 % of control
- T/C (dose: 100.0 mg/kg/injection, schedule: Q01DX001 (ip), vehicle: water): 100 % of control
- T/C (dose: 100.0 mg/kg/injection, schedule: Q01DX009 (ip), vehicle: water): 111 % of control
- T/C (dose: 100.0 mg/kg/injection, schedule: Q04DX003 (ip), vehicle: water): 115 % of control
- T/C (dose: 200.0 mg/kg/injection, schedule: Q01DX001 (ip), vehicle: water): 107 % of control
- T/C (dose: 200.0 mg/kg/injection, schedule: Q04DX003 (ip), vehicle: water): 112 % of control
- T/C (dose: 400.0 mg/kg/injection, schedule: Q01DX001 (ip), vehicle: water): 100 % of control
- T/C (dose: 400.0 mg/kg/injection, schedule: Q04DX003 (ip), vehicle: water): 112 % of control
- T/C (dose: 600.0 mg/kg/injection, schedule: Q01DX001 (ip), vehicle: water): 101 % of control

Structure (SMILES): CC(=O)N1C2C3CCC(C)(OC3(C)C)C21 (stereo not drawn)
- T/C (dose: 50.0 mg/kg/injection, schedule: Q01DX005 (ip), vehicle: saline): 107 % of control
- T/C (dose: 100.0 mg/kg/injection, schedule: Q01DX005 (ip), vehicle: saline): 102 % of control
- T/C (dose: 200.0 mg/kg/injection, schedule: Q01DX005 (ip), vehicle: saline): 110 % of control

Structure (SMILES): Clc1cccc(Cl)c1CSc1nc2ccccc2n2cccc12
- T/C [12]: 102 % of control
- T/C (dose: 100.0 mg/kg/injection, schedule: Q01DX009 (ip), vehicle: Klucel (hydroxypropylcellulose) (HPC)): 105 % of control
- T/C (dose: 200.0 mg/kg/injection, schedule: Q01DX009 (ip), vehicle: Klucel (hydroxypropylcellulose) (HPC)): 105 % of control

Structure (SMILES): CCCCC(CC)C(=O)OCCCNC(=O)C(C)OC(=O)C(CC)CCCC (stereo not drawn)
- T/C [4]: 104 % of control
- T/C [7]: 87 % of control
- T/C [8]: 104 % of control

Structure (SMILES): [N-]=[N+]=NC(=O)Nc1ccccc1F
- T/C (dose: 3.75 mg/kg/injection, schedule: Q01DX005 (ip), vehicle: Klucel (hydroxypropylcellulose) (HPC)): 96 % of control
- T/C (dose: 7.5 mg/kg/injection, schedule: Q01DX005 (ip), vehicle: Klucel (hydroxypropylcellulose) (HPC)): 90 % of control and 97 % of control
- T/C (dose: 15.0 mg/kg/injection, schedule: Q01DX005 (ip), vehicle: Klucel (hydroxypropylcellulose) (HPC)): 104 % of control

Structure (SMILES): O=C(CCSCCC(=O)N/N=C(\CO)C(O)C(O)C(O)CO)N/N=C(/CO)C(O)C(O)C(O)CO (stereo not drawn)
- T/C (dose: 50.0 mg/kg/injection, schedule: Q01DX005 (ip), vehicle: suspension in saline): 99 % of control
- T/C (dose: 100.0 mg/kg/injection, schedule: Q01DX005 (ip), vehicle: suspension in saline): 104 % of control
- T/C (dose: 200.0 mg/kg/injection, schedule: Q01DX005 (ip), vehicle: suspension in saline): 97 % of control

Structure (SMILES): CC1Cc2c([nH]c3ccccc3c2=O)O1 (stereo not drawn)
- T/C [14]: 93 % of control
- T/C [15]: 101 % of control
- T/C (dose: 200.0 mg/kg/injection, schedule: Q01DX009 (ip), vehicle: saline): 100 % of control

Structure (SMILES): COc1nc(COC(=O)NC(C)C)c(COC(=O)NC(C)C)n1C
- T/C (dose: 12.5 mg/kg/injection, schedule: Q01DX005 (ip), vehicle: Klucel (hydroxypropylcellulose) (HPC)): 109 % of control
- T/C [9]: 118 % of control
- T/C [10]: 123 % of control
- T/C [11]: 166 % of control
- T/C [13]: 189 % of control
- T/C (dose: 400.0 mg/kg/injection, schedule: Q01DX005 (ip), vehicle: Klucel (hydroxypropylcellulose) (HPC)): 196 % of control

Structure (SMILES): CCCCCCCCCCCCCCCCCC(=O)N[C@@H](Cc1ccc(N(CCCl)CCCl)cc1)C(=O)NCCCCCC
- T/C (dose: 2.12 mg/kg/injection, schedule: Q01DX009 (ip), vehicle: saline): 109 % of control
- T/C (dose: 2.12 mg/kg/injection, schedule: Q03HX008 (ip), vehicle: saline): 90 % of control
- T/C (dose: 4.24 mg/kg/injection, schedule: Q01DX009 (ip), vehicle: saline): 113 % of control
- T/C (dose: 4.24 mg/kg/injection, schedule: Q03HX008 (ip), vehicle: saline): 100 % of control
- T/C (dose: 8.48 mg/kg/injection, schedule: Q03HX008 (ip), vehicle: saline): 100 % of control
- T/C (dose: 16.95 mg/kg/injection, schedule: Q03HX008 (ip), vehicle: saline): 100 % of control
- T/C (dose: 33.9 mg/kg/injection, schedule: Q03HX008 (ip), vehicle: saline): 90 % of control
- T/C (dose: 67.8 mg/kg/injection, schedule: Q03HX008 (ip), vehicle: saline): 90 % of control

Structure (SMILES): Cc1cc2c3ccccc3[nH]c(=O)n2n1
- T/C (dose: 50.0 mg/kg/injection, schedule: Q04DX003 (ip), vehicle: saline): 101 % of control
- T/C [16]: 100 % of control
- T/C (dose: 100.0 mg/kg/injection, schedule: Q04DX003 (ip), vehicle: saline with Tween-80): 110 % of control
- T/C (dose: 100.0 mg/kg/injection, schedule: Q04DX003 (ip), vehicle: saline): 101 % of control
- T/C [17]: 110 % of control
- T/C (dose: 200.0 mg/kg/injection, schedule: Q04DX003 (ip), vehicle: saline with Tween-80): 120 % of control
- T/C (dose: 200.0 mg/kg/injection, schedule: Q04DX003 (ip), vehicle: saline): 105 % of control
- T/C (dose: 400.0 mg/kg/injection, schedule: Q04DX003 (ip), vehicle: saline with Tween-80): 100 % of control
- T/C (dose: 400.0 mg/kg/injection, schedule: Q04DX003 (ip), vehicle: saline): 98 % of control

Structure (SMILES): CCN(CC)CCNc1ccc(COC(=O)NC)c2sc3ccccc3c(=O)c12
- T/C [5]: 116 % of control
- T/C (dose: 3.12 mg/kg/injection, schedule: Q01DX009 (ip), vehicle: saline with Tween-80): 122 % of control
- T/C [6]: 119 % of control

Structure (SMILES): CCN(CC)CCOC(=O)C(c1ccccc1)C(C)(O)CC (stereo not drawn)
- T/C (dose: 25.0 mg/kg/injection, schedule: Q01DX009 (ip), vehicle: saline): 105 % of control
- T/C [14]: 100 % of control
- T/C [15]: 115 % of control

Structure (SMILES): CCCCN1C(=O)/C(=C/c2ccc(OC)cc2)SC1=S
- T/C (dose: 50.0 mg/kg/injection, schedule: Q01DX009 (ip), vehicle: saline with Tween-80): 100 % of control
- T/C [16]: 94 % of control
- T/C [17]: 90 % of control
